Experimental data reported in patent US20240166587A1, “SARS-CoV-2 inhibitors - artificial compounds” (priority 2021, published 2024).
Several values for one entry are separate records, joined by “and”; a condition that tells them apart may be missing. Equal values may be shown once. Read-outs that look alike come from different tables or passages of the source.

Key:
[1] = test system: SARS-CoV-2; assay type: cell-based; details: Vero cells; for Experiment 2: repeat of TCID50 assay with a dose of 50 uM / Experiment 2: Fold reduction of TCID50 / Experiment 3: repeat of TCID50 assay with a dose of 50 uM / Experiment 3: Fold reduction of TCID50: substance 50 μM; for Experiment 2: Fold reduction of TCID50: experiment 2, versus DMSO ctrl; for Experiment 3: Fold reduction of TCID50: experiment 3, versus DMSO ctrl
[2] = test system: SARS-CoV-2; assay type: cell-based; details: Vero E6, 48 hrs
[3] = test system: SARS-CoV-2; assay type: cell-based; details: Vero cells, different concentrations, 48 hours
[4] = test system: SARS-CoV-2; assay type: cell-based; details: for effect on virus proliferation after short term incubation: versus untreated controls
[5] = biological target: T1, RBD to ACE2 receptor binding (Severe acute respiratory syndrome coronavirus 2, UniProt P0DTC2); assay: Molecular interaction assay to detect inhibition of RBD to ACE2 receptor binding; details: for inhibitory effect on binding to ACE2 receptor: His-tagged RBD, plate bound ACE2
T1 construct: 200 ng His-tagged RBD was incubated
Experimental: The molecular interaction assay to detect inhibition of RBD to ACE2 receptor binding was performed as described (Gattinger et al., Allergy, 76 (2021), 878-883) with following alterations: 200 ng His-tagged RBD was incubated with various doses (100, 50, 25, 12.2, and 6 mM) of substance X for three hours at RT followed by a 3-hours overlay onto plate bound ACE2 (2 μg/ml). Bound RBD was then detected with a mouse monoclonal anti-His antibody followed by an HRP-labelled anti-mouse IgG1 antibody and detected with ABTS detected. All measurements were performed in duplicates with a variation of <5%.

Row | Molecule | Experiment 1: TCID50 assay with 2 doses/substance, 10 μM [1] | Experiment 2: repeat of TCID50 assay with a dose of 50 uM [1] | Experiment 2: Fold reduction of TCID50 [1] [fold] | Experiment 3: repeat of TCID50 assay with a dose of 50 uM [1] | Experiment 3: Fold reduction of TCID50 [1] | Experiment 1: TCID50 assay with 2 doses/substance, 100 μM [1] | inhibition of viral replication ([2]; 80 μM) | inhibition of viral replication ([2]; 100 μM) | inhibition of virus proliferation [3] | ct values after short term incubation ([4]; 25 μM for one hour) | ct values after short term incubation ([4]; 50 μM for one hour) | effect on virus proliferation after short term incubation [4] | inhibition at 100 µM ([5]; 100 μM) [%] | inhibitory effect on binding to ACE2 receptor [5]
1 | O=C(O)c1cc(O)c(O)c(O)c1 [Compound I, gallic acid] | 3.16 × 10^5 TCID50/mL | 3.16 × 10^4 TCID50/mL | 9.97 | 4.44 × 10^5 TCID50/mL | 9.27 fold | 3.56 × 10^5 TCID50/mL |  |  |  |  |  |  |  | 
2 | Oc1cc(/C=C/c2cc(O)c(O)c(O)c2)cc(O)c1O [Compound X, 3,3′,4,4′,5,5′-hexahydroxy-trans-stilbene] | 5.88 × 10^4 TCID50/mL | 3.16 × 10^3 TCID50/mL | 99.7 | 1.95 × 10^3 TCID50/mL | 2107 fold and 2107.2 fold | 4.64 × 10^2 TCID50/mL | inhibit viral replication completely | inhibit viral replication completely | inhibition of virus proliferation | significantly increased | significantly increased | could inhibit virus proliferation in a concentration dependent manner | 21 to 31 | could inhibit binding to ACE2 in a concentration dependent manner
3 | Oc1cc(O)c2c(c1)O[C@H](c1cc(O)c(O)c(O)c1)[C@H](O)C2 [VII, (−)-epigallocatechin] | 2.15 × 10^4 TCID50/mL | 2.89 × 10^5 TCID50/mL | 1.09 | 3.80 × 10^5 TCID50/mL | 7.09 fold | 3.16 × 10^3 TCID50/mL |  |  |  |  |  |  |  | 
4 | Oc1ccc(/C=C/c2cc(O)cc(O)c2)cc1 [trihydroxystilbene, trans-3,5,4′-trihydroxystilbene] |  |  |  |  |  |  |  | low inhibition of viral replication |  |  |  |  |  | 
5 | (−) epigallocatechin gallate [Compound IV] | 3.36 × 10^4 TCID50/mL | 3.16 × 10^3 TCID50/mL | 99.7 | 5.12 × 10^3 TCID50/mL | 802 fold and 802.3 fold | cytotoxic |  |  | inhibition of virus proliferation |  |  | did not have any effects on the virus proliferation |  | did not show any inhibitory effects
6 | (−)-gallocatechin gallate [VIII] | 2.15 × 10^5 TCID50/mL | 3.16 × 10^3 TCID50/mL | 99.7 | 8 × 10^5 TCID50/mL | 5.14 fold | 4.64 × 10^2 TCID50/mL |  |  | inhibition of virus proliferation |  |  | did not have any effects on the virus proliferation |  | did not show any inhibitory effects
